BindingDB's records for doi:10.1021/acschembio.7b00489 (Michigan State University, 2017)
“And” between values parts separate entries of the source, which are not always exact repeats. Equal values may be shown once. Where a name gives a salt, the structure may show the parent alone.

How the values were obtained:
[1] = target: Dopamine D2 receptor (Homo sapiens); assay: Human embryonic kidney (HEK-293) cells were plated in 100 mm plates and transfected with pcDNA3.1-D2R using Lipofectamine 2000 (Invitrogen; Waltham, MA) according to the manufacturer's instructions. Radioligand binding assays were performed 24 h after transfection essentially as described.
[2] = target: Proteasome subunit alpha type-6 (Homo sapiens, UniProt P60900); assay: Proteasome Activity Assay; details: pH 7.5; 37 °C
Experimental: Activity assays were carried out in a 200 uL reaction volume. Different concentrations of test compounds were added to a black flat/clear bottom 96-well plate containing 1 nM of either human constitutive 20S proteasome or 26S proteasome, in 50 mM Tris-HCl at pH 7.5 and allowed to sit for 10 min at RT. Fluorogenic substrates were then added and the enzymatic activity measured at 37 °C on a SpectraMax M5e spectrometer by measuring the change in fluorescence unit per minute for 1 h at 380−460 nm. The fluorescence units for the vehicle control were set at a 100%, and the ratio of drug-treated sample set to that of vehicle control was used to calculate the fold change in enzymatic activity.

Chain of Proteasome subunit alpha type-6 (P60900 whole entry): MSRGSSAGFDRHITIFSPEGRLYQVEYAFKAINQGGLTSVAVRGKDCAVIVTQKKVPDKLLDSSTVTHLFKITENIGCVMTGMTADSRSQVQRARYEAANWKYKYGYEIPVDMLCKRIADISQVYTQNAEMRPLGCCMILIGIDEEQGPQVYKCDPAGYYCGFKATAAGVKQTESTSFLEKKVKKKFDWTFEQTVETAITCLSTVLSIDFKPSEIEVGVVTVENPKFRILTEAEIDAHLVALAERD

## COC(=O)c1ccc(CN2c3ccccc3Sc3ccc(Cl)cc32)cc1 [CPZ analog, 8]
[1]
  Ki: > 250 µM
[2]
  EC50: 15.6 µM

## CN1CCCC(CC2c3ccccc3Sc3ccccc32)C1 (centres undefined) [METHIXENE]
[2]
  EC50: 11.9 µM

## CN(C)CCCN1c2ccccc2Sc2ccc(C(F)(F)F)cc21 [TRIFLUPROMAZINE]
[2]
  EC50: 7.8 µM

## O=S(=O)(O)CCCCN1c2ccccc2Sc2ccc(Cl)cc21 [CPZ analog, 2]
[1]
  Ki: > 250 µM
[2]
  EC50: 6.3 µM

## O=C(O)c1ccc(CN2c3ccccc3Sc3ccc(Cl)cc32)cc1 [CPZ analog, 7]
[1]
  Ki: > 250 µM
[2]
  EC50: 6.4 µM

## CC(C)CCCN1c2ccccc2Sc2ccc(Cl)cc21 [CPZ analog, 1]
[1]
  Ki: > 250 µM
[2]
  EC50: > 25 µM

## CN(C)CCCN1c2ccccc2Sc2ccc(Cl)cc21 [[3-(2-Chloro-phenothiazin-10-yl)-propyl]-dimethyl-amine(Chlorpromazine)]
[2]
  EC50: 14.8 µM and 9.9 µM

## O=C(O)C#CCN1c2ccccc2Sc2ccc(Cl)cc21 [CPZ analog, 6]
[1]
  Ki: > 250 µM
[2]
  EC50: > 25 µM

## CN(C)CCCN1c2ccccc2CCc2ccc(Cl)cc21 [CLOMIPRAMINE HYDROCHLORIDE]
[2]
  EC50: 12.4 µM

## Clc1ccc2c(c1)N(CCCCN1CCOCC1)c1ccccc1S2 [CPZ analog, 5]
[1]
  Ki: > 2.97 µM
[2]
  EC50: 8.9 µM

## CSc1ccc2c(c1)N(CC[C@@H]1CCCCN1C)c1ccccc1S2 [10-[2-(1-Methyl-piperidin-2-yl)-ethyl]-2-methylsulfanyl-10H-phenothiazine (thioridazine)]
[2]
  EC50: 12 µM

## O=S(=O)(O)CCCN1c2ccccc2Sc2ccc(Cl)cc21 [CPZ analog, 3]
[2]
  EC50: > 25 µM

## O=S(=O)(O)CCCCCN1c2ccccc2Sc2ccc(Cl)cc21 [CPZ analog, 4]
[2]
  EC50: > 25 µM
